Patent publication US9765052B2, “Anthranilamide compounds, their mixtures and the use thereof as pesticides” (BASF SE, priority 2013, dated 2017)

What was measured:
[1] = test system: green peach aphid (Myzus persicae); assay: Test 1: control of green peach aphid through systemic means (artificial diet, 96-well microtiter plates); format: in vivo; conditions: 3 days
Description: If present, synergism can be described as an interaction where the combined effect of two or more compounds is greater than the sum of the individual effects of each of the compounds. The presence of a synergistic effect in terms of percent control, between two mixing partners (X and Y) can be calculated using the Colby equation (Colby, S. R., 1967, Calculating Synergistic and Antagonistic Responses in Herbicide Combinations, Weeds, 15, 20-22):
When the observed combined control effect is greater than the expected combined control effect (E), then the combined effect is synergistic.
For evaluating control of green peach aphid (Myzus persicae) through systemic means the test unit consisted of 96-well-microtiter plates containing liquid artificial diet under an artificial membrane.
The compounds or mixtures were formulated using a solution containing 75% water and 25% DMSO. Different concentrations of formulated compounds or mixtures were pipetted into the aphid diet, using a custom built pipetter, at two replications.
For experimental mixtures in these tests identical volumes of both mixing partners at the desired concentrations respectively, were mixed together.
After application, 5-8 adult aphids were placed on the artificial membrane inside the microtiter plate wells. The aphids were then allowed to suck on the treated aphid diet and incubated at […], 50±5% RH for 3 days. Aphid mortality and fecundity was then visually assessed. For the mixture tested the results are listed in the tables for Example E2-1 and E2-2.

Degradation in soil = format: physicochemical; conditions: neutral sandy loam soil LUFA 5M; incubated at 27° C. and 40% of max. water-holding capacity over 90 days; DT50 referring to 20° C.; SFO or DFOP kinetics
Method: Degradation of the compound (I-B-131) and compound (I-B-33) in soil was compared. The two compounds were incubated in neutral sandy loam soil (LUFA 5M) at 27° C. and 40% of the max. water-holding capacity over a period of 90 days. Soil extraction was carried out with acetonitrile followed by acetonitrile/water (1/1) and the extracted test compounds were quantified by HPLC-MS. The following DT50 values (referring to 20° C.) were obtained assuming single first order (SFO) or double first order in parallel (DFOP) kinetics: […]

[2] = test system: ALM07 strain (neonicotinoid and pyrethroid resistant), adult whitefly
Description: Bioassay Method Bemisia tabaci Residual Activity, Preventive Egg Lay

[3] = test system: Neonicotinoid and pyrethroid resistant strain of the green peach aphid (Myzus persicae); assay: B2 a) Myzus persicae mixed population, contact activity, curative on pea seedlings; Resistance Factor RF80; format: in vivo; conditions: FRC-P strain (neonicotinoid resistant) vs standard screening strain of Myzus persicae; lowest concentration giving greater than 80% mortality, 6 days after treatment
Description: B2: Determination of the cross-resistance status of compounds I when applied against agronomically important pest species resistant to one or more commercially available class of insecticide.
(§1) The level of resistance and therefore the impact on the performance of the insecticide can be measured by the use of a ‘Resistance Factor’. The resistance factor can be calculated by dividing the concentration of an insecticide that provides a set level of mortality (i.e. 80 percent) for the ‘resistant’ strain with the concentration of the same insecticide that provides the same level of mortality for the ‘susceptible’ insect of the same species and life-stage. Although there are no set rules, a low value (1-10) indicates no cross-resistance and only natural levels of variation and a high value (50+) provides strong evidence of cross-resistance.
a) Neonicotinoid and Pyrethroid Resistant Strain of the Green Peach Aphid (Myzus persicae)
Myzus persicae strains utilised: • Standard screening strain of Myzus persicae (Neonicotinoid susceptible) • FRC-P strain of Myzus persicae (Neonicotinoid resistant) Bioassay Method
Myzus persicae: mixed population, contact activity, curative on pea seedlings
Pea seedlings, infested with an aphid population of mixed ages, are treated with the test solutions in a spray chamber. 6 days after treatment, samples are checked for mortality. […]

[4] = test system: Neonicotinoid resistant strain of the brown planthopper (Nilaparvata lugens); assay: B2 b) Nilaparvata lugens larvicide, feeding/contact activity, preventive on rice seedlings; Resistance Factor RF80; format: in vivo; conditions: IND3 strain (neonicotinoid resistant) vs standard screening strain of Nilaparvata lugens; lowest concentration giving greater than 80% mortality
Description: as §1
b) Neonicotinoid Resistant Strain of the Brown Planthopper (Nilaparvata lugens)
Nilaparvata lugens strains utilised: • Standard screening strain of Nilaparvata lugens (Neonicotinoid susceptible) • IND3 strain of Nilaparvata lugens (Neonicotinoid resistant) Bioassay Method: Nilaparvata lugens: Larvicide, Feeding/Contact Activity, Preventive
Rice seedlings are treated with the diluted test solutions in a turn table spray chamber. After drying, they are infested with 20 N3 nymphs. 6 and 12 days after the treatment samples are checked for mortality, growth regulation, and effects on the Fi generation.
The Resistance Factor (RF80) of different compounds is tested. […]

[5] = test system: Diamide-resistant diamond back moth (Plutella xylostella), Cebu strain; conditions: third instar larvae, mortality 3 days after inoculation; comparing LC50s and LC90s

Structure (SMILES): CNC(=O)c1cc(Cl)cc(C)c1NC(=O)c1cc(Br)nn1-c1ncccc1Cl [I-B-33, chlorantraniliprole]
- Average Control % ([1]; Example E2-2, 0.4 ppm): 0%
- DT50 (Degradation in soil): 89 days

Structure (SMILES): CN1COCN(Cc2cnc(Cl)s2)/C1=N\[N+](=O)[O-] [thiamethoxam]
- RF in residual mortality bioassay of adult whitefly [2]: > 250
- Resistance Factor (RF80) [3]: > 250
- Resistance Factor (RF80) [4]: > 64

Structure (SMILES): CC(NC(=O)c1cc(Cl)cc(Br)c1NC(=O)c1cc(Br)nn1-c1ncccc1Cl)C1CC1 (stereo not shown) [I-A-1]
- Average Control % ([1]; Example E2-1, 0.4 ppm): 0%
- Average Control % ([1]; Example E2-2, 0.8 ppm): 0%

Structure (SMILES): CC1=NNC(=O)N(/N=C/c2cccnc2)C1 [Pymetrozine, pymetrozine]
- Average Control % ([1]; Example E2-1, 80 ppm): 0%

Structure (SMILES): Cc1cc(C(F)(C(F)(F)F)C(F)(F)F)ccc1NC(=O)c1cccc(I)c1C(=O)NC(C)(C)CS(C)(=O)=O [flubendiamide]
- Efficacy against field collected Cebu strain of Plutella xylostella [5]: only weak efficacies

Structure (SMILES): Cc1cc(Cl)cc(C(N)=O)c1NC(=O)c1cc(C(F)(F)F)nn1-c1ncccc1Cl [I-B-131, N-(2-carbamoyl-4-chloro-6-methyl-phenyl)-2-(3-chloro-2-pyridyl)-5-(trifluoromethyl)pyrazole-3-carboxamide]
- DT50 (Degradation in soil): 41 days
